The results in this text go back to ChEMBL document CHEMBL1130906, “Actinomycin D, C2 and VII, inhibitors of Grb2-SHC interaction produced by Streptomyces” (Bioorg Med Chem Lett, 1998).

pIC50: −log10 of the molar value. Numbered stars: 1 amine (or outer) side, 2 acyl side, 3 side chain; on linkers, the order of the positions; unused ones are H or OH. Bridge positions count the residues as written; N and C are the ends. Square brackets hold non-standard residues; d marks the D form. Peptide text beside a SMILES is read from it. I, II: the chains in the order shown. Actinocin(1to9) = Cc1c2oc3c(C)ccc(C(=O)[*:2])c3nc-2c(C(=O)[*:1])c(N)c1=O; Actinocin(9to1) = Cc1c2oc3c(C)ccc(C(=O)[*:1])c3nc-2c(C(=O)[*:2])c(N)c1=O; NMeV = CN[CH](C(=O)O)C(C)C; Sar = CNCC(=O)O

The target of this test is Growth factor receptor-bound protein 2 (Homo sapiens, UniProt P62993). Put plainly: Inhibition of GST-Grb2 Tyrosine kinase SH2 domain binding to [3H]labeled-phosphopeptide (Ac-SpYVNK-NH-C(O)-CH2CH2H3).
Sequence of Growth factor receptor-bound protein 2 (P62993 whole entry, the tested form may be a part): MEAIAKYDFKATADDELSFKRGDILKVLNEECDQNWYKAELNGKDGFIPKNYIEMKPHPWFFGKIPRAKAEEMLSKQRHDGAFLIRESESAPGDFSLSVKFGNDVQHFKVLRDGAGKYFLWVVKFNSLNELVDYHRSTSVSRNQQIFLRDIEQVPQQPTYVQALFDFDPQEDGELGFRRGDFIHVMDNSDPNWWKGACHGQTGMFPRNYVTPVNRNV

Take `Cc1c2oc3c(C)ccc(C(=O)N[C@@H]4C(=O)N[C@H](C(C)C)C(=O)N5CCC[C@H]5C(=O)N(C)CC(=O)N(C)[C@@H](C(C)C)C(=O)O[C@@H]4C)c3nc-2c(C(=O)N[C@@H]2C(=O)N[C@H](C(C)C)C(=O)N3CCC[C@H]3C(=O)N(C)CC(=O)N(C)[C@@H](C(C)C)C(=O)O[C@@H]2C)c(N)c1=O` [DACTINOMYCIN] (I: T[dV]P[Sar][NMeV] / II: T[dV]P[Sar][NMeV]; ester I:1-I:C, II:1-II:C; linker I:N-II:N via Actinocin(9to1)): the negative logarithm of the IC50 (pIC50) (as a rule, the negative decadic logarithm of the IC50, by convention in mol/L) was 5.30. To `CC[C@H](C)[C@@H]1NC(=O)[C@@H](NC(=O)c2ccc(C)c3oc4c(C)c(=O)c(N)c(C(=O)N[C@@H]5C(=O)N[C@@H](C(C)C)C(=O)N6CCC[C@H]6C(=O)N(C)CC(=O)N(C)[C@@H](C(C)C)C(=O)O[C@@H]5C)c-4nc23)[C@@H](C)OC(=O)[C@H](C(C)C)N(C)C(=O)CN(C)C(=O)[C@@H]2CCCN2C1=O` (I: TIP[Sar][NMeV] / II: TVP[Sar][NMeV]; ester I:1-I:C, II:1-II:C; linker I:N-II:N via Actinocin(9to1)) belongs 5.23; to `CCC(C)C1NC(=O)C(NC(=O)c2c3nc4c(C(=O)NC5C(=O)NC(C(C)CC)C(=O)N6CCCC6C(=O)N(C)CC(=O)N(C)C(C(C)C)C(=O)OC5C)ccc(C)c4oc-3c(C)c(=O)c2N)C(C)OC(=O)C(C(C)C)N(C)C(=O)CN(C)C(=O)C2CCCN2C1=O` (stereo not drawn) (I: TIP[Sar][NMeV] / II: TIP[Sar][NMeV]; ester I:1-I:C, II:1-II:C; linker I:N-II:N via Actinocin(1to9); configuration not given here), 5.12.
